# Assay results published in paper PMC2882989 (Biochemistry, 2010).
# Biological target: LovK (Caulobacter vibrioides, UniProt A0A0H3C379)
# Test: competition with BODIPY-ATP, fluorescence anisotropy
# Format: binding
# Conditions: 1 mM ATP in excess; competitive, same site as BODIPY-ATP
smiles,measurement,value
Nc1ncnc2c1ncn2[C@@H]1O[C@H](COP(=O)(O)OP(=O)(O)OP(=O)(O)O)[C@@H](O)[C@H]1O [ATP],"competition with BODIPY-ATP, fluorescence anisotropy",BODYPI-ATP is displaced from LovK due to competition for the same binding site
